Assay results reported in BindingDB's records for patent US20240287022 (Merck Sharp & Dohme, 2024).

Molecular target: T1, L-amino-acid oxidase (Homo sapiens, UniProt Q96RQ9)
T1 sequence (Q96RQ9 whole entry): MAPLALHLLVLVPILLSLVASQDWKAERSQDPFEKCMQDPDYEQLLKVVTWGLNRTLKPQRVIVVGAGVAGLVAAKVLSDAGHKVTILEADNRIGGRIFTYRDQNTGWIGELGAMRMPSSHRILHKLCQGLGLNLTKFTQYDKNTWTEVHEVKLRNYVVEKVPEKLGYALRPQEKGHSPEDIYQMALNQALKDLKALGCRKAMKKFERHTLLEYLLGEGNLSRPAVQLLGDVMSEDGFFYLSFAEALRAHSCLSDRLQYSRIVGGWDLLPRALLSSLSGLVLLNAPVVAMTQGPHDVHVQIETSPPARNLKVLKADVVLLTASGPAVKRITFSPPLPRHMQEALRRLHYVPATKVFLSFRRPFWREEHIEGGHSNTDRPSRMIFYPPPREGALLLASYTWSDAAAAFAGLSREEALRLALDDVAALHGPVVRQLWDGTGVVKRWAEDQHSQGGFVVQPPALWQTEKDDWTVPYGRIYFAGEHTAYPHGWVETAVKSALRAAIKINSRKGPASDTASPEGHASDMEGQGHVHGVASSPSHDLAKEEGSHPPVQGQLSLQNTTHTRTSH
Assay: IL4I1 Enzymatic Assay
Protocol: nterleukin 4 inducible protein 1 (IL4I1) is an L-amino oxidase that catalyzes the oxidation of aromatic residues (Phe, Trp and Tyr): L-amino acid+H2O+O2→2-oxo acid+NH3+H2O2. Equal molar of H2O2 and the corresponding alpha-ketoacid are produced when IL4I1 and substrate are added. In this assay, the hydrogen peroxide generated by IL4I1 are then detected through a coupled reaction with Amplex Red (10-acetyl-3,7-dihydroxyphenoxazine) and […] (HRP) to produce Resorufin product that could be detected in the form of fluorescence signals. The assessment of the inhibitory effect of small molecules (EC50) on IL4I1 is measured by the effectiveness of the compounds to inhibit the production of H2O2.Using this assay, the potency (EC50) of each compound was determined from a ten-point (1:3 serial dilution; top compound concentration of 10000 nM) titration curve using the following outlined procedure. To each well of a black flat-bottom Greiner (Cat #781076) 384 well-plate, 25 nL of compound (0.1% DMSO in final assay volume of 25 μL) was dispensed, followed by the addition of 12.5 μL of 1× assay buffer (50 mM Hepes 7.0 and 0.005% Tween20 (Sigma, Cat #P8341; low peroxide grade)) containing 2 nM of recombinant IL4I1 (R&D Systems, Cat #5684-AO-020). Plates were placed in an ambient temperature humidified chamber for a four-hour pre-incubation with compound. Subsequently, each reaction was initiated by the addition of 12.5 μL 1× assay buffer containing 2 mM of each aromatic amino acids (Phe/Tyr/Trp), 0.1 mM Amplex Red and 2 U/mL of HRP. The final reaction in each well of 25 μL consists of 1 nM of IL4I1, 1 mM of each residues (Phe, Tyr and Trp), 0.05 mM Amplex Red and 1 U/mL of HRP. It should be noted that the concentrations of Amplex Red and HRP used here are in excess such that the conversion of H2O2 to Resorufin product occurs instantaneously and non-rate limiting.

## O=c1[nH]c2ccccc2cc1Cc1ccc(C2(F)CNC2)cc1 [US20240287022, Example 76]
  EC50: 8.2 nM

## N#CCc1ccc(Cc2cc3ccccc3[nH]c2=O)cn1 [US20240287022, Example 93]
  EC50: 14.4 nM

## O=c1[nH]c2ccncc2cc1Cc1ccc2scnc2c1 [US20240287022, Example 114]
  EC50: 1.5 nM

## Cn1c(=O)c(Cc2ccc(Cc3nnco3)cc2)cc2ccccc21 [US20240287022, Example 145]
  EC50: 154 nM
